Laboratory results taken from US20100041089A1, “IMPROVED METHOD FOR DETECTING CHEMICAL […]” (priority 2006, published 2010).

Tested on: yeast genes (expressed mRNA)
Test: DNA chip measurement of expressed mRNA of yeast genes after culture with a toxic chemical substance
Type: cell-based, Saccharomyces cerevisiae S288C
Conditions: for level of expressed mRNA in the presence of chemical substance / level in the absence of chemical substance: cultured two hours with the chemical substance; for The level of expressed mRNA in the presence of chemical substance/The level of expressed mRNA in the absence of chemical substance: cultured two hours with substance
Procedure, shortened: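 Expression is given as treated/untreated fluorescence ratio on a whole-genome yeast DNA chip, a ratio of two or more being significant. Log-phase S288C cultures in YPD at 25 °C received the chemical for 2 h at a dose that slows growth without killing. mRNA was reverse-transcribed with Cy3- or Cy5-dUTP.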

Substance: Na2As [(1)]
- level of expressed mRNA in the presence of chemical substance / level in the absence of chemical substance (yeast gene YDR133C): 0.9
- level of expressed mRNA in the presence of chemical substance / level in the absence of chemical substance (yeast gene YDR250C): 1.9
- level of expressed mRNA in the presence of chemical substance / level in the absence of chemical substance (yeast gene YDR278C): 1.0
- level of expressed mRNA in the presence of chemical substance / level in the absence of chemical substance (yeast gene YDR281C): 2.1
- The level of expressed mRNA in the presence of chemical substance/The level of expressed mRNA in the absence of chemical substance (yeast gene YDR330W): 0.8
- level of expressed mRNA in the presence of chemical substance / level in the absence of chemical substance (yeast gene YDR366C): 0.9
- The level of expressed mRNA in the presence of chemical substance/The level of expressed mRNA in the absence of chemical substance (yeast gene YDR411C): 0.9
- The level of expressed mRNA in the presence of chemical substance/The level of expressed mRNA in the absence of chemical substance (yeast gene YDR511W): 1.3
- The level of expressed mRNA in the presence of chemical substance/The level of expressed mRNA in the absence of chemical substance (yeast gene YDR545W): 0.6
- The level of expressed mRNA in the presence of chemical substance/The level of expressed mRNA in the absence of chemical substance (yeast gene YEL001C): 1.0
- The level of expressed mRNA in the presence of chemical substance/The level of expressed mRNA in the absence of chemical substance (yeast gene YER004W): 1.0
- The level of expressed mRNA in the presence of chemical substance/The level of expressed mRNA in the absence of chemical substance (yeast gene YER035W): 1.4
- The level of expressed mRNA in the presence of chemical substance/The level of expressed mRNA in the absence of chemical substance (yeast gene YER079W): 1.1
- The level of expressed mRNA in the presence of chemical substance/The level of expressed mRNA in the absence of chemical substance (yeast gene YER106W): 1.3
- The level of expressed mRNA in the presence of chemical substance/The level of expressed mRNA in the absence of chemical substance (yeast gene YER158C): 1.2
- The level of expressed mRNA in the presence of chemical substance/The level of expressed mRNA in the absence of chemical substance (yeast gene YER163C): 1.1
- The level of expressed mRNA in the presence of chemical substance/The level of expressed mRNA in the absence of chemical substance (yeast gene YER175C): 0.9
- The level of expressed mRNA in the presence of chemical substance/The level of expressed mRNA in the absence of chemical substance (yeast gene YFL006W): 0.8
- The level of expressed mRNA in the presence of chemical substance/The level of expressed mRNA in the absence of chemical substance (yeast gene YFL010C): 1.0
- The level of expressed mRNA in the presence of chemical substance/The level of expressed mRNA in the absence of chemical substance (yeast gene YFL024C): 1.0
- The level of expressed mRNA in the presence of chemical substance/The level of expressed mRNA in the absence of chemical substance (yeast gene YFL032W): 0.4
- level of expressed mRNA in the presence of chemical substance / level in the absence of chemical substance (yeast gene YFR026C): 0.9
- The level of expressed mRNA in the presence of chemical substance/The level of expressed mRNA in the absence of chemical substance (yeast gene YGL037C): 1.5
- The level of expressed mRNA in the presence of chemical substance/The level of expressed mRNA in the absence of chemical substance (yeast gene YGL047W): 1.0
- The level of expressed mRNA in the presence of chemical substance/The level of expressed mRNA in the absence of chemical substance (yeast gene YGL053W): 1.5
- level of expressed mRNA in the presence of chemical substance / level in the absence of chemical substance (yeast gene YGL088W): 0.9
- The level of expressed mRNA in the presence of chemical substance/The level of expressed mRNA in the absence of chemical substance (yeast gene YGL121C): 2.6
- The level of expressed mRNA in the presence of chemical substance/The level of expressed mRNA in the absence of chemical substance (yeast gene YGL199C): 1.1
- level of expressed mRNA in the presence of chemical substance / level in the absence of chemical substance (yeast gene YGR038W): 0.9
- The level of expressed mRNA in the presence of chemical substance/The level of expressed mRNA in the absence of chemical substance (yeast gene YGR101W): 1.0
- The level of expressed mRNA in the presence of chemical substance/The level of expressed mRNA in the absence of chemical substance (yeast gene YGR110W): 1.6
- The level of expressed mRNA in the presence of chemical substance/The level of expressed mRNA in the absence of chemical substance (yeast gene YGR130C): 0.9
- level of expressed mRNA in the presence of chemical substance / level in the absence of chemical substance (yeast gene YGR139W): 1.3
- The level of expressed mRNA in the presence of chemical substance/The level of expressed mRNA in the absence of chemical substance (yeast gene YGR154C): 1.8
- The level of expressed mRNA in the presence of chemical substance/The level of expressed mRNA in the absence of chemical substance (yeast gene YGR221C): 0.9
- level of expressed mRNA in the presence of chemical substance / level in the absence of chemical substance (yeast gene YGR243W): 1.4
- level of expressed mRNA in the presence of chemical substance / level in the absence of chemical substance (yeast gene YGR293C): 0.5
- level of expressed mRNA in the presence of chemical substance / level in the absence of chemical substance (yeast gene YHL006C): 0.7
- level of expressed mRNA in the presence of chemical substance / level in the absence of chemical substance (yeast gene YHR095W): 1.1
- level of expressed mRNA in the presence of chemical substance / level in the absence of chemical substance (yeast gene YHR105W): 0.9
- The level of expressed mRNA in the presence of chemical substance/The level of expressed mRNA in the absence of chemical substance (yeast gene YHR138C): 2.8
- level of expressed mRNA in the presence of chemical substance / level in the absence of chemical substance (yeast gene YHR181W): 0.9
- The level of expressed mRNA in the presence of chemical substance/The level of expressed mRNA in the absence of chemical substance (yeast gene YHR199C): 1.9
- The level of expressed mRNA in the presence of chemical substance/The level of expressed mRNA in the absence of chemical substance (yeast gene YIL023C): 1.1
- The level of expressed mRNA in the presence of chemical substance/The level of expressed mRNA in the absence of chemical substance (yeast gene YIL041W): 1.0
- The level of expressed mRNA in the presence of chemical substance/The level of expressed mRNA in the absence of chemical substance (yeast gene YIL087C): 1.3
- level of expressed mRNA in the presence of chemical substance / level in the absence of chemical substance (yeast gene YIL127C): 1.1
- level of expressed mRNA in the presence of chemical substance / level in the absence of chemical substance (yeast gene YJL017W): 1.1
- level of expressed mRNA in the presence of chemical substance / level in the absence of chemical substance (yeast gene YJL037W): 1.8
- The level of expressed mRNA in the presence of chemical substance/The level of expressed mRNA in the absence of chemical substance (yeast gene YJL057C): 1.5
- The level of expressed mRNA in the presence of chemical substance/The level of expressed mRNA in the absence of chemical substance (yeast gene YJL066C): 0.9
- The level of expressed mRNA in the presence of chemical substance/The level of expressed mRNA in the absence of chemical substance (yeast gene YJL082W): 1.4
- level of expressed mRNA in the presence of chemical substance / level in the absence of chemical substance (yeast gene YJL097W): 1.0
